In brackets after ≈: the same amount, converted by molar mass. Several values for one entry are separate records, joined by “and”; a condition that tells them apart may be missing. Equal entries are not always repeated. Activity calls are given as the source filed them. No cut-off for these calls is given here.
What was measured:
[1] = tested on: Staphylococcus aureus; experiment: Antibacterial activity against Staphylococcus aureus; assay type: functional; settings: for MIC: read-out: MIC
[2] = tested on: Pseudomonas aeruginosa; experiment: Antibacterial activity against Pseudomonas aeruginosa PAO1; assay type: functional
[3] = tested on: Escherichia coli; experiment: Antibacterial activity against Escherichia coli; assay type: functional
[4] = tested on: Escherichia coli; experiment: Antibacterial activity against wild type Escherichia coli harbouring pore; assay type: functional
[5] = tested on: Escherichia coli; experiment: Antibacterial activity against […] Escherichia coli harbouring TolC-deficient mutant; assay type: functional
[6] = tested on: Escherichia coli; experiment: Antibacterial activity against […] Escherichia coli harbouring TolC-deficient mutant with pore; assay type: functional
[7] = tested on: Pseudomonas aeruginosa; experiment: Antibacterial activity against Pseudomonas aeruginosa PAO1 harbouring pore; assay type: functional
[8] = tested on: Pseudomonas aeruginosa; experiment: Antibacterial activity against Pseudomonas aeruginosa PAO1 harbouring delta6 mutant; assay type: functional
[9] = tested on: Pseudomonas aeruginosa; experiment: Antibacterial activity against Pseudomonas aeruginosa PAO1 harbouring delta6 mutant with pore; assay type: functional
[10] = (§1) Cytotoxicity against human A549 cells; assay type: toxicity, cell-based; settings: A549 cells
[11] = tested on: A549; experiment: as §1; assay type: toxicity, cell-based; settings: a549
[12] = tested on: Staphylococcus aureus; experiment: Antibacterial activity against Staphylococcus aureus ATCC 25923; assay type: functional
[13] = tested on: Staphylococcus aureus; experiment: Antibacterial activity against Staphylococcus aureus ATCC 216; assay type: functional
[14] = tested on: Staphylococcus aureus; experiment: Antibacterial activity against Staphylococcus aureus ATCC 219; assay type: functional
[15] = tested on: Staphylococcus aureus; experiment: Antibacterial activity against Staphylococcus aureus ATCC 223; assay type: functional
[16] = tested on: Staphylococcus aureus; experiment: Antibacterial activity against Staphylococcus aureus ATCC 701; assay type: functional
[17] = tested on: Staphylococcus aureus; experiment: Antibacterial activity against Staphylococcus aureus ATCC 711; assay type: functional
[18] = tested on: Staphylococcus aureus; experiment: Antibacterial activity against Staphylococcus aureus ATCC 716; assay type: functional
[19] = tested on: Staphylococcus aureus; experiment: Bacteriostatic activity against Staphylococcus aureus ATCC 25923 at 4 times MIC by time kill assay; assay type: functional, organism-based
[20] = tested on: Staphylococcus aureus; experiment: Bactericidal activity against Staphylococcus aureus ATCC 25923 at 16 times MIC measured after 7 to 24 hrs by time kill assay; assay type: functional, organism-based; settings: time 7-24 hrs
[21] = tested on: Staphylococcus aureus; experiment: Bacteriostatic activity against Staphylococcus aureus ATCC 25923 at MIC by time kill assay; assay type: functional, organism-based
[22] = tested on: Staphylococcus aureus; experiment: Antibacterial activity against Staphylococcus aureus ATCC 215; assay type: functional
[23] = tested on: Staphylococcus aureus; experiment: Antibacterial activity against Staphylococcus aureus ATCC 217; assay type: functional
[24] = Staphylococcus aureus, read-out: MIC80

Compound: NCc1cccc2sc(N(CCCn3ccnc3)C(=O)c3ccco3)nc12
- MIC ([1]; Staphylococcus aureus): 66.7 µM (≈ 25.4 µg/mL)
- MIC [2]: > 200 µM
- MIC [3]: > 200 µM
- MIC [4]: > 200 µM
- MIC [5]: 100 µM (≈ 38.1 µg/mL)
- MIC [6]: 100 µM (≈ 38.1 µg/mL)
- MIC [7]: > 200 µM
- MIC [8]: 100 µM (≈ 38.1 µg/mL)
- MIC [9]: 100 µM (≈ 38.1 µg/mL)

Compound: Cc1cc(Cl)cc2sc(N(CCCn3ccnc3)CC3CC3)nc12
- MIC80 [1, 24]: 5.9 µM (≈ 2.13 µg/mL)
- CC50 [10]: 65.6 µM

Compound: Cc1cc(C(=O)N(CCCn2ccnc2)c2nc3c(C)cc(Cl)cc3s2)oc1C
- MIC ([1]; Staphylococcus aureus): 3.9 µM (≈ 1.67 µg/mL)
- CC50 [11]: 52.1 µM

Compound: Cc1ccoc1C(=O)N(CCCn1ccnc1)c1nc2c(C)cc(Cl)cc2s1
- MIC ([1]; Staphylococcus aureus): 2.6 µM (≈ 1.08 µg/mL)
- CC50 [11]: 90.2 µM
- MIC [12]: 2.6 µM (≈ 1.08 µg/mL)
- MIC [13]: 14.8 µM (≈ 6.14 µg/mL)
- MIC [14]: 22.2 µM (≈ 9.21 µg/mL)
- MIC [15]: 9.9 µM (≈ 4.11 µg/mL)
- MIC [16]: 14.8 µM (≈ 6.14 µg/mL)
- MIC [17]: 14.8 µM (≈ 6.14 µg/mL)
- MIC [18]: 14.8 µM (≈ 6.14 µg/mL)

Compound: Cc1cc(Cl)cc2sc(N(CCCn3ccnc3)CS(=O)(=O)c3ccco3)nc12
- MIC80 [1, 24]: 3.9 µM (≈ 1.76 µg/mL)
- CC50 [10]: 43.2 µM

Compound: Cc1cc(Cl)cc2sc(NCCCn3ccnc3)nc12
- MIC ([1]; Staphylococcus aureus): 19.8 µM (≈ 6.08 µg/mL)
- CC50 [10]: 111 µM

Compound: Cc1cc(Cl)cc2sc(N(CCCn3cc[n+](C)c3)C(=O)c3ccco3)nc12
- MIC80 [1]: 29.6 µM and 13.2 µM

Compound: O=C(c1ccco1)N(CCCn1ccnc1)c1nc2c(F)cc(F)cc2s1
- MIC ([1]; Staphylococcus aureus): 16.5 µM (≈ 6.41 µg/mL)
- CC50 [10]: 93.7 µM

Compound: Cc1cc(Cl)cc2sc(N(CC3CCNCC3)C(=O)c3ccco3)nc12
- MIC80 [1]: 19.8 µM (≈ 7.72 µg/mL)
- MIC80 [1, 24]: 13.2 µM (≈ 5.15 µg/mL)
- MIC [2]: > 200 µM
- MIC [3]: 200 µM (≈ 78 µg/mL)
- MIC [4]: 200 µM (≈ 78 µg/mL)
- MIC [5]: 50 µM (≈ 19.5 µg/mL)
- MIC [6]: 50 µM (≈ 19.5 µg/mL)
- MIC [7]: > 200 µM
- MIC [8]: 25 µM (≈ 9.75 µg/mL)
- MIC [9]: 25 µM (≈ 9.75 µg/mL)

Compound: Cc1cc(Cl)cc2sc(NC(=O)c3ccco3)nc12
- MIC ([1]; Staphylococcus aureus): > 100 µM
- CC50 [10]: 17.9 µM

Compound: Cc1cc(Cl)cc2sc(N(CCCn3ccnc3)C(=O)C3CC3)nc12
- Activity [19]: Active
- Activity [20]: Active
- Activity [21]: Active
- MIC ([1]; Staphylococcus aureus): 3.9 µM (≈ 1.46 µg/mL)
- MIC [12]: 3.9 µM (≈ 1.46 µg/mL)
- MIC [2]: > 200 µM
- MIC [22]: 14.8 µM (≈ 5.55 µg/mL)
- MIC [13]: 4.4 µM (≈ 1.65 µg/mL)
- MIC [23]: 14.8 µM (≈ 5.55 µg/mL)
- MIC [14]: 2.9 µM (≈ 1.09 µg/mL)
- MIC [15]: 4.4 µM (≈ 1.65 µg/mL)
- MIC [16]: 4.4 µM (≈ 1.65 µg/mL)
- MIC [17]: 4.4 µM (≈ 1.65 µg/mL)
- MIC [18]: 4.4 µM (≈ 1.65 µg/mL)
- MIC [3]: > 200 µM
- MIC [4]: 200 µM (≈ 75 µg/mL)
- MIC [5]: < 0.2 µM
- MIC [6]: < 0.2 µM
- MIC [7]: > 200 µM
- MIC [8]: 50 µM (≈ 18.7 µg/mL)
- MIC [9]: 1.56 µM (≈ 0.585 µg/mL)

Compound: Cc1cc(Cl)cc2sc(N(CCCn3ccnc3)C(=O)C3CCC3)nc12
- MIC ([1]; Staphylococcus aureus): 2.6 µM (≈ 1.01 µg/mL)
- CC50 [11]: 44.6 µM

Compound: Cc1cc(Cl)cc2sc(N(CC3CCCNC3)C(=O)c3ccco3)nc12 (stereo unspecified)
- MIC80 [1]: 19.8 µM (≈ 7.72 µg/mL)
- MIC80 [1, 24]: 29.6 µM (≈ 11.5 µg/mL)
- MIC [2]: > 200 µM
- MIC [4]: 100 µM (≈ 39 µg/mL)
- MIC [5]: 100 µM (≈ 39 µg/mL)
- MIC [6]: 50 µM (≈ 19.5 µg/mL)
- MIC [7]: > 200 µM
- MIC [8]: > 200 µM
- MIC [9]: 25 µM (≈ 9.75 µg/mL)

Compound: Cc1cc(Cl)cc2sc(N(CCCn3ccnc3)C(=O)c3ccccc3)nc12
- MIC ([1]; Staphylococcus aureus): 4.9 µM (≈ 2.01 µg/mL)
- CC50 [11]: 37.2 µM

Compound: Cc1nc(Cl)cc2sc(N(CCCn3ccnc3)C(=O)c3ccco3)nc12
- MIC ([1]; Staphylococcus aureus): > 100 µM

Compound: Cc1cc(Cl)cc2sc(N(CCCn3ccnc3)Cc3ccccc3)nc12
- MIC80 [1, 24]: 5.9 µM (≈ 2.34 µg/mL)
- CC50 [10]: 33.3 µM
- MIC [8]: > 200 µM
- MIC [9]: 3.2 µM (≈ 1.27 µg/mL)

Compound: Cc1cc(Cl)cc2sc(N(CCCn3ccnc3)CS(=O)(=O)c3cccs3)nc12
- MIC80 [1, 24]: 3.9 µM (≈ 1.82 µg/mL)
- CC50 [10]: 26.3 µM

Compound: Cc1cccc2sc(N(CCCn3ccnc3)C(=O)c3ccco3)nc12
- MIC ([1]; Staphylococcus aureus): 7.4 µM (≈ 2.71 µg/mL)
- CC50 [10]: 84.7 µM

Compound: Cc1cc(Cl)cc2sc(N(CCCn3ccnc3)C(=O)C3CCCO3)nc12 (stereo unspecified)
- MIC ([1]; Staphylococcus aureus): 13.2 µM (≈ 5.34 µg/mL)
- CC50 [11]: 87.6 µM
